ChEMBL document CHEMBL1201862, “PubChem BioAssay data set” (2004)
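The compound was tested at five concentrations on cells cultured in 96-well plates, with a 48-hour exposure period. Abbreviation: GI50, concentration required for 50% inhibition of growth.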 Calls of active or inactive are those of the source. Rule as the data show it: active = GI50 up to about 1.1 µM and inactive = higher.

Key:
Experiment in all cases: growth of human tumour cells (NCI), 48 h
DU-145 = system: DU-145
HCT-116 = system: HCT-116
HOP-62 = system: HOP-62
HOP-92 = system: HOP-92
KM12 = system: KM12
MOLT-4 = system: MOLT-4
Malme-3M = system: Malme-3M
NCI-H226 = system: NCI-H226
NCI-H460 = system: NCI-H460
OVCAR-3 = system: OVCAR-3
OVCAR-5 = system: OVCAR-5
SK-MEL-5 = system: SK-MEL-5
SNB-75 = system: SNB-75
T47D = system: T47D
TK-10 = system: TK-10
UACC-62 = system: UACC-62
UO-31 = system: UO-31
CAKI-1 = system: CAKI-1
CCRF-CEM = system: CCRF-CEM
MCF7 = system: MCF7

Measured: GI50

CN(C)CCCN1c2ccc([N+](=O)[O-])cc2CCc2cc([N+](=O)[O-])ccc21
inactive: DU-145 16.6 µM | HCT-116 14.4 µM | HOP-62 16 µM | HOP-92 5.26 µM | KM12 14.8 µM | MOLT-4 14.5 µM | Malme-3M 10.3 µM | NCI-H226 15.1 µM | NCI-H460 15.1 µM | OVCAR-3 15.5 µM | OVCAR-5 13.7 µM | SK-MEL-5 15.7 µM | SNB-75 12.3 µM | T47D 15.6 µM | TK-10 11.3 µM | UACC-62 13.5 µM | UO-31 22.5 µM

COc1ccc2c(c1)C(=O)[C@@](Nc1ccc(C=O)cc1)(OC)[C@@](OC)(c1ccc([N+](=O)[O-])cc1)O2
inactive: CAKI-1 > 10 µM | CCRF-CEM > 10 µM | DU-145 > 10 µM | HCT-116 > 10 µM | HOP-62 > 10 µM | KM12 > 10 µM | MCF7 > 10 µM | MOLT-4 > 10 µM | Malme-3M > 10 µM | NCI-H226 6.12 µM | NCI-H460 > 10 µM | OVCAR-3 > 10 µM | OVCAR-5 > 10 µM | SK-MEL-5 > 10 µM | SNB-75 3.91 µM | T47D 5.96 µM | TK-10 > 10 µM | UACC-62 > 10 µM | UO-31 > 10 µM

COC(=O)/N=[N+](\[O-])C(c1ccc(Cl)cc1)c1ccc(Cl)cc1
inactive: CAKI-1 10.1 µM | CCRF-CEM 28.4 µM | DU-145 29.1 µM | HCT-116 23.8 µM | KM12 32.2 µM | MCF7 33.9 µM | MOLT-4 39.7 µM | Malme-3M 51.9 µM | NCI-H226 21.9 µM | NCI-H460 38.9 µM | OVCAR-3 57.7 µM | OVCAR-5 80.9 µM | SK-MEL-5 24.7 µM | SNB-75 27.9 µM | T47D 20.8 µM | TK-10 36.1 µM | UACC-62 36.4 µM | UO-31 15.5 µM

CC(C)c1nc(Cl)nc(Cl)c1Cl
active: CAKI-1 < 0.01 µM | CCRF-CEM < 0.01 µM | HCT-116 0.0344 µM | HOP-62 0.794 µM | HOP-92 0.0233 µM | KM12 0.293 µM | MOLT-4 0.0284 µM | Malme-3M 0.304 µM | OVCAR-3 0.142 µM | OVCAR-5 0.414 µM | SK-MEL-5 0.861 µM | T47D 0.6 µM | TK-10 0.468 µM | UACC-62 0.266 µM | UO-31 0.0711 µM
inactive: DU-145 3.12 µM | NCI-H226 2.27 µM | NCI-H460 1.29 µM | SNB-75 5.11 µM

N=C(N)NCCN1CC2CCC(CC2)C1
inactive: CAKI-1 > 100 µM | DU-145 > 100 µM | HCT-116 > 100 µM | HOP-62 > 100 µM | HOP-92 25.6 µM | KM12 > 100 µM | MOLT-4 > 100 µM | Malme-3M > 100 µM | NCI-H226 80.4 µM | NCI-H460 > 100 µM | OVCAR-3 > 100 µM | OVCAR-5 > 100 µM | SK-MEL-5 53.2 µM | SNB-75 19.7 µM | T47D > 100 µM | TK-10 > 100 µM | UACC-62 > 100 µM | UO-31 > 100 µM

CNC(=O)CCCNC(=O)CCCCC(=O)N(C)C
inactive: CAKI-1 > 100 µM | DU-145 > 100 µM | HCT-116 > 100 µM | HOP-62 > 100 µM | KM12 > 100 µM | MCF7 > 100 µM | MOLT-4 89.5 µM | Malme-3M > 100 µM | NCI-H460 > 100 µM | OVCAR-3 > 100 µM | OVCAR-5 > 100 µM | SK-MEL-5 > 100 µM | T47D > 100 µM | TK-10 > 100 µM | UACC-62 > 100 µM | UO-31 > 100 µM

CSc1nc(=O)cnn1C
inactive: CAKI-1 > 100 µM | CCRF-CEM > 100 µM | DU-145 > 100 µM | HCT-116 > 100 µM | HOP-62 > 100 µM | KM12 > 100 µM | MCF7 > 100 µM | MOLT-4 > 100 µM | Malme-3M > 100 µM | NCI-H226 > 100 µM | NCI-H460 > 100 µM | OVCAR-3 > 100 µM | OVCAR-5 > 100 µM | SK-MEL-5 > 100 µM | SNB-75 > 100 µM | T47D > 100 µM | TK-10 > 100 µM | UACC-62 > 100 µM | UO-31 > 100 µM

CC(=O)Nc1ccc(/N=N\c2c(O)c(S(=O)(=O)O)cc3cc(S(=O)(=O)O)ccc23)cc1
inactive: CAKI-1 > 100 µM | DU-145 > 100 µM | HCT-116 > 100 µM | HOP-62 > 100 µM | HOP-92 > 100 µM | KM12 > 100 µM | Malme-3M > 100 µM | NCI-H226 > 100 µM | OVCAR-3 > 100 µM | OVCAR-5 > 100 µM | SK-MEL-5 > 100 µM | SNB-75 > 100 µM | T47D > 100 µM | TK-10 > 100 µM | UACC-62 > 100 µM | UO-31 > 100 µM

O=c1[nH]c(=S)c2cc3c(=S)[nH]c(=O)n(CCO)c3nc2n1CCO
inactive: CAKI-1 > 100 µM | CCRF-CEM > 100 µM | HCT-116 > 100 µM | HOP-62 > 100 µM | HOP-92 > 100 µM | KM12 > 100 µM | MCF7 > 100 µM | MOLT-4 > 100 µM | Malme-3M > 100 µM | NCI-H226 > 100 µM | NCI-H460 > 100 µM | OVCAR-3 > 100 µM | OVCAR-5 > 100 µM | SK-MEL-5 > 100 µM | SNB-75 > 100 µM | T47D > 100 µM | TK-10 > 100 µM | UO-31 > 100 µM

CCCc1n[nH]c(=O)n1N1C(=O)C=CC1=O
inactive: CAKI-1 > 100 µM | CCRF-CEM > 100 µM | DU-145 > 100 µM | HCT-116 > 100 µM | HOP-62 > 100 µM | MCF7 > 100 µM | MOLT-4 > 100 µM | Malme-3M > 100 µM | NCI-H460 > 100 µM | OVCAR-3 > 100 µM | OVCAR-5 > 100 µM | SK-MEL-5 > 100 µM | T47D > 100 µM | TK-10 > 100 µM | UACC-62 > 100 µM

COCc1nc2c(OC)c(-c3nc4ccc(N5CCN(C)CC5)nc4[nH]3)cc(OC)c2n1C
inactive: CAKI-1 40.7 µM | CCRF-CEM 21 µM | DU-145 37.7 µM | HCT-116 41.3 µM | HOP-62 42.3 µM | HOP-92 > 100 µM | KM12 24 µM | MOLT-4 16.4 µM | Malme-3M 19.4 µM | NCI-H226 22.4 µM | NCI-H460 26.4 µM | OVCAR-3 53.6 µM | OVCAR-5 44.2 µM | SNB-75 18.5 µM | T47D 38.6 µM | UACC-62 20.7 µM | UO-31 22 µM

CC(=O)C(C)(C)CCC(C)(C)C(C)=O
inactive: CAKI-1 > 100 µM | CCRF-CEM > 100 µM | DU-145 > 100 µM | HCT-116 > 100 µM | HOP-62 > 100 µM | KM12 > 100 µM | MCF7 > 100 µM | MOLT-4 > 100 µM | Malme-3M > 100 µM | NCI-H226 > 100 µM | NCI-H460 > 100 µM | OVCAR-5 > 100 µM | SK-MEL-5 > 100 µM | SNB-75 > 100 µM | T47D > 100 µM | TK-10 > 100 µM | UACC-62 > 100 µM | UO-31 > 100 µM
